One data set concerns the target T1, MIF (Homo sapiens, UniProt P14174).
T1 construct: (catalogue number not given); host or cells: E. coli BL21 Star (DE3)
T1 sequence (P14174 2-115 limits assumed): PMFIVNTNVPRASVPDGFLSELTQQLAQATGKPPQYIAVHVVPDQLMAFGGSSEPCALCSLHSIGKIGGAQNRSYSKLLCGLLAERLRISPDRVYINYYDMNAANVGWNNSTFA
The data set can be described thus: Inhibition of MIF tautomerase activity (L-dopachrome methyl ester, absorbance at 475 nm). The format is biochemical. To be noted: 30 μmol/L test substance, 10 to 50 nmol/L MIF, pH 6.2, control = 100%; read-out: Inhibition Rate of Tautomerase Reaction. As to the method: The inhibitory effect of test substances against tautomerase activity of MIF was evaluated by referring to a method of Healy et al. (Cancer Epidemiology Biomarkers and Prevention, 2011, vol. 20, pp. 1516-1523).
In this method, tautomeric reaction from L-3,4-dihydroxyphenylalanine methyl ester (L-dopachrome methyl ester, colored) to 5,6-hydroxyindole-2-carboxylic acid methyl ester (no color) is measured as a change in absorbance at 475 nm.
As an enzyme source, recombinant MIF manufactured by Abcam Plc. or MIF produced and purified by referring to a method of Lubetsky et al. (The Journal of Biological Chemistry, 2002, vol. 277, pp. 24976-24982) was used. A purification method for MIF is described below.
The pET15b vector (Merck) into which the full length gene sequence of MIF had been inserted was transfected E. coli BL21 Star (DE3) strain (Life Technologies Corporation). […] The E. coli were resuspended in buffer (pH 7.5) containing 20 mmol/L Tris (Wako Pure Chemical Industries, Ltd.), 20 mmol/L sodium chloride (Wako Pure Chemical Industries, Ltd.) and 1 mmol/L dithiothreitol (Wako Pure Chemical Industries, Ltd.), and the resultant was subjected to ultrasonic lysis and centrifugation at 15000 rpm for 10 minutes. The thus obtained supernatant was filtered using a 0.20 μm filter, and was allowed to pass through HiTrap Q HP and HiTrap SP HP columns (GE Healthcare Japan Corporation), so as to separate flow-through fractions each of 5 mL. Each of 10 μL of the separated fractions was subjected to the electrophoresis using 5 to 20% polyacrylamide gel (Wako Pure Chemical Industries, Ltd.), and all proteins were stained with Coomassie brilliant blue reagent (Bio-Rad Laboratories, Inc.). On the basis of results thus obtained, a fraction containing a large amount of MIF and containing least amount of other proteins was selected as purified MIF. The concentration of MIF protein was measured by using BCA protein assay reagent (Thermo Fisher Scientific K. K.).
Inhibitory effect of each test substance against MIF tautomerase activity was measured as follows.
A final concentration of 10 to 50 nmol/L of MIF and a final concentration of 30 μmol/L of each test substance or 0.5% dimethyl sulfoxide (Wako Pure Chemical Industries, Ltd.) as a control were added to buffer (pH 6.2) containing 50 mmol/L Bis-Tris (Dojindo Laboratories) and 1 mmol/L EDTA (Dojindo Laboratories), and reaction was performed at room temperature for 15 minutes to give a reaction solution 1.
On the other hand, 1/20 volume of 12 mmol/L L-3,4-dihydroxyphenylalanine methyl ester (Sigma Aldrich) and 1/20 volume of 24 mmol/L sodium periodate (Wako Pure Chemical Industries, Ltd.) were added to buffer having the same composition as that used for obtaining the reaction solution 1, to give a reaction solution 2.
Next, the reaction solution 1 and the reaction solution 2 were mixed, and the temporal change of absorbance at 475 nm of the obtained mixture was immediately measured.
The difference of the absorbencies between the at about 1 minute after the measurement start and at about 5 minutes after was obtained. Assuming that the absorbance change of the control is 100%, an inhibiting rate of the tautomerase reaction in presence of=each test substance was calculated.

The subject of data set [1] is chronic relapsing EAE model of mouse. The format is in vivo. How it is done: Compound A was selected as a test substance, and salazosulfapyridine (hereinafter referred to as SASP) was selected as a comparative control agent. Compound A was administered at a dose of 30 mg/kg (Compound A group). SASP was administered at a dose of 300 mg/kg (SASP group). In control group and normal group (no induction treatment group), 0.5% methyl cellulose aqueous solution used as vehicle of the administration liquid was administered.
The chronic relapsing EAE was induced in SJL/J female mice by immunization with partial PLP peptide. Briefly, an emulsion was prepared by mixing equivalent volumes of phosphate buffer saline containing 1 mg/mL of the peptide corresponding to residues 139-151 of the PLP and Freund's […] adjuvant containing 4 mg/mL of killed M. Tuberculosis H37Ra. The emulsion was intradermically injected (50 μg of PLP per mouse) into four positions on the back for immunization, and additionally, on the day of the immunization and two days after, pertussis toxin was intraperitoneally injected in each amount of 150 ng per mouse, twice in total. The vehicle, the test substance or the reference article was orally administered continuously for 44 days once daily from the day of the immunization.
In the present experiment, paralysis was developed to reach a peak on the 14th to 16th day after the immunization, and the symptom remitted once, but relapsed to reach a peak on the 38th day.
The symptom was evaluated in accordance with a report of Weaver et al. (FASEB Journal, 2005, vol. 19, p. 1668). Briefly, paralysis of all of the four limbs and the tail was evaluated by scoring in 4 ranks of scores of 0 to 3 and in 3 ranks of scores of 0 to 2, respectively, and the sum of the scores was determined as EAE score (the maximum score 14).
Incidence rates (the number of mice having developed the disease/the number of used mice) and the average of EAE score of each group were measured at the period of initial onset (on the 15th day after the immunization) and at the period of relapse (on the 38th day after the immunization).

The test system of data set [2] is chronic constriction nerve injury model rat. The data set can be described thus: Chronic constriction nerve injury model rat, mechanical allodynia by von Frey test. To be noted: von Frey test, left hind paw. It is filed as in vivo. As to the method:
This test was performed by referring to a method of Bennett et al. (Pain, 1988, vol. 33, pp. 87-107). Compound A was used as a test substance, and celecoxib, one of NSAIDs, was used as a reference substance. The compound A was administered at a dose of 30 mg/kg (Compound A group). The celecoxib was administered at a dose of 30 mg/kg (celecoxib group). To a control group, a 0.5% methyl cellulose aqueous solution used as a vehicle was administered. Under anesthetic with Somnopentyl (manufactured by Kyoritsu Seiyaku Corporation, about 52 mg/kg, intraperitoneal administration), nerve constriction operation was performed on the left sciatic nerves of Sprague-Dawley male rats (7 weeks old). Briefly, a left femoral region of each rat was dissected, the sciatic nerve was detached from tissues around, and the nerve was loosely constricted with a 4-0 silk suture (manufactured by Eticon Inc., surgical silk) for having narrow parts in four positions at intervals of about 1 mm. The muscular layer and the skin were respectively sutured, and the operation region was disinfected. The vehicle, the test substance or the reference substance was orally administered once a day continuously for 14 days from the 16th day after the operation. From the start of the administration, pain sense (mechanical allodynia) of the footpad of left hind paw was evaluated by von Frey test. […] The evaluation of the pain sense was expressed as an average of pain threshold values.

Broadly, the inhibition is the percentage by which the read-out fell short of the control.

Turning to `CS(=O)(=O)Nc1cc2occ(N)c(=O)c2cc1Oc1ccccc1` [Compound B, N-(3-amino-4-oxo-6-phenoxy-4H-1-benzopyran-7-yl)methanesulfonamide], the inhibition at 30 µM on MIF was 50 to 75%. On to `CCS(=O)(=O)Nc1cc2occ(NC=O)c(=O)c2cc1Oc1ccccc1` [Compound H, N-[7-[(ethylsulfonyl)amino]-4-oxo-6-phenoxy-4H-1-benzopyran-3-yl]formamide], for which, on MIF, the inhibition at 30 µM was not below 75%. Turning to `CS(=O)(=O)Nc1cc2oc(-c3ccccc3)cc(=O)c2cc1Oc1ccccc1` [Compound I, N-(4-oxo-6-phenoxy-2-phenyl-4H-1-benzopyran-7-yl)methanesulfonamide], the inhibition at 30 µM at MIF was not below 75%.

On to `CS(=O)(=O)Nc1cc2oc(C(N)=O)cc(=O)c2cc1Oc1ccccc1` [Compound E, 7-[(methylsulfonyl)amino]-4-oxo-6-phenoxy-4H-1-benzopyran-2-carboxamide], for which, at MIF, the inhibition at 30 µM is not below 75%. Same read-out and setting: the value for `CC(=O)Nc1coc2cc(NS(C)(=O)=O)c(Oc3ccccc3)cc2c1=O` [Compound C, N-[7-[(methylsulfonyl)amino]-4-oxo-6-phenoxy-4H-1-benzopyran-3-yl]acetamide] was 50 to 75%; that for `CC(=O)Nc1cc(=O)c2cc(Oc3ccccc3)c(NS(C)(=O)=O)cc2o1` [Compound F, N-[7-[(methylsulfonyl)amino]-4-oxo-6-phenoxy-4H-1-benzopyran-2-yl]acetamide] was not below 75%. Consider `O=C(O)c1cc(/N=N/c2ccc(S(=O)(=O)Nc3ccccn3)cc2)ccc1O` [SASP, salazosulfapyridine], for which the “Animals died, by period of initial onset” value in data set [1] (15th day after immunization, 8 animals, 300 mg/kg orally once daily) was “(1 animal”. Also, the “EAE score, period of initial onset” value in data set [1] (15th day after immunization, average, maximum score 14, oral once daily (Compound A 30 mg/kg, SASP 300 mg/kg)) is listed as 5.5. Also, the “Incidence rate, period of initial onset” value in data set [1] (15th day after immunization, mice having developed the disease/mice used, oral once daily from immunization (Compound A 30 mg/kg, SASP 300 mg/kg)) is 7/7. Further, the “Animals died, by period of relapse” value in data set [1] (38th day after immunization, 8 animals, 300 mg/kg orally once daily) is recorded as “(2 animals”. Further, in data set [1] (38th day after immunization, average, maximum score 14, oral once daily (Compound A 30 mg/kg, SASP 300 mg/kg)), the “EAE score, period of relapse” value came out at 2.0. For the same compound, the “Incidence rate, period of relapse” value in data set [1] (38th day after immunization, mice having developed the disease/mice used, oral once daily (Compound A 30 mg/kg, SASP 300 mg/kg)) is given as 6/6. Further, the “Effect on incidence rate / EAE score, paralysis of chronic relapsing EAE” value in data set [1] (oral once daily for 44 days from immunization (Compound A 30 mg/kg, SASP 300 mg/kg)) is “neither the incidence rate nor the EAE score was lowered”.

For the compound `CS(=O)(=O)Nc1cc2occ(C(N)=O)c(=O)c2cc1Oc1ccccc1` [Compound G, 7-[(methylsulfonyl)amino]-4-oxo-6-phenoxy-4H-1-benzopyran-3-carboxamide], the inhibition at 30 µM on MIF is 50 to 75%. As for `CS(=O)(=O)Nc1cc2occc(=O)c2cc1Oc1ccccc1` [Compound D, N-(4-oxo-6-phenoxy-4H-1-benzopyran-7-yl)methanesulfonamide], on MIF, the inhibition at 30 µM lay within 50 to 75%. Turning to `Cc1ccc(-c2cc(C(F)(F)F)nn2-c2ccc(S(N)(=O)=O)cc2)cc1` [Celecoxib, celecoxib, reference compound], the “Average of pain thresholds, 30th day after operation” value in data set [2] (30 mg/kg orally once a day for 14 days from the 16th day after operation) is 3.1 g. In addition, in data set [2] (day before start of administration, 30 mg/kg groups), the “Average of pain thresholds, 15th day after operation” value was determined as 2.5 g.

The values are drawn from patent US9918963B2, “Therapeutic agent for disease based on inhibitory effect of macrophage migration inhibitory factor” (TOYAMA CHEMICAL CO., LTD., priority 2013, dated 2018).
